In publication PMC5933747 (PLoS ONE, 2018):
Where two headings read alike, the source gives them in different places.

Key:
Assay type in all cases: cell-based
human NaV1.5 = human NaV1.5 (Homo sapiens, UniProt Q14524); assay: IonWorks Quattro (IWQ) electrophysiology, human NaV1.5
human NaV1.4 = human NaV1.4 (Homo sapiens, UniProt P35499); assay: IonWorks Quattro (IWQ) electrophysiology, human NaV1.4
human NaV1.7 = human NaV1.7 (Homo sapiens, UniProt Q15858); assay: IonWorks Quattro (IWQ) electrophysiology, human NaV1.7
[1] = read-out: Ala mutant IWQ IC50 NaV1.5
[2] = read-out: Ala mutant IWQ IC50 NaV1.4
[3] = read-out: Ala mutant IWQ IC50 NaV1.7
[4] = read-out: Glu mutant IWQ IC50 NaV1.5
[5] = read-out: Glu mutant IWQ IC50 NaV1.4
[6] = read-out: Glu mutant IWQ IC50 NaV1.7

Sequence of human NaV1.5 (Q14524 whole entry): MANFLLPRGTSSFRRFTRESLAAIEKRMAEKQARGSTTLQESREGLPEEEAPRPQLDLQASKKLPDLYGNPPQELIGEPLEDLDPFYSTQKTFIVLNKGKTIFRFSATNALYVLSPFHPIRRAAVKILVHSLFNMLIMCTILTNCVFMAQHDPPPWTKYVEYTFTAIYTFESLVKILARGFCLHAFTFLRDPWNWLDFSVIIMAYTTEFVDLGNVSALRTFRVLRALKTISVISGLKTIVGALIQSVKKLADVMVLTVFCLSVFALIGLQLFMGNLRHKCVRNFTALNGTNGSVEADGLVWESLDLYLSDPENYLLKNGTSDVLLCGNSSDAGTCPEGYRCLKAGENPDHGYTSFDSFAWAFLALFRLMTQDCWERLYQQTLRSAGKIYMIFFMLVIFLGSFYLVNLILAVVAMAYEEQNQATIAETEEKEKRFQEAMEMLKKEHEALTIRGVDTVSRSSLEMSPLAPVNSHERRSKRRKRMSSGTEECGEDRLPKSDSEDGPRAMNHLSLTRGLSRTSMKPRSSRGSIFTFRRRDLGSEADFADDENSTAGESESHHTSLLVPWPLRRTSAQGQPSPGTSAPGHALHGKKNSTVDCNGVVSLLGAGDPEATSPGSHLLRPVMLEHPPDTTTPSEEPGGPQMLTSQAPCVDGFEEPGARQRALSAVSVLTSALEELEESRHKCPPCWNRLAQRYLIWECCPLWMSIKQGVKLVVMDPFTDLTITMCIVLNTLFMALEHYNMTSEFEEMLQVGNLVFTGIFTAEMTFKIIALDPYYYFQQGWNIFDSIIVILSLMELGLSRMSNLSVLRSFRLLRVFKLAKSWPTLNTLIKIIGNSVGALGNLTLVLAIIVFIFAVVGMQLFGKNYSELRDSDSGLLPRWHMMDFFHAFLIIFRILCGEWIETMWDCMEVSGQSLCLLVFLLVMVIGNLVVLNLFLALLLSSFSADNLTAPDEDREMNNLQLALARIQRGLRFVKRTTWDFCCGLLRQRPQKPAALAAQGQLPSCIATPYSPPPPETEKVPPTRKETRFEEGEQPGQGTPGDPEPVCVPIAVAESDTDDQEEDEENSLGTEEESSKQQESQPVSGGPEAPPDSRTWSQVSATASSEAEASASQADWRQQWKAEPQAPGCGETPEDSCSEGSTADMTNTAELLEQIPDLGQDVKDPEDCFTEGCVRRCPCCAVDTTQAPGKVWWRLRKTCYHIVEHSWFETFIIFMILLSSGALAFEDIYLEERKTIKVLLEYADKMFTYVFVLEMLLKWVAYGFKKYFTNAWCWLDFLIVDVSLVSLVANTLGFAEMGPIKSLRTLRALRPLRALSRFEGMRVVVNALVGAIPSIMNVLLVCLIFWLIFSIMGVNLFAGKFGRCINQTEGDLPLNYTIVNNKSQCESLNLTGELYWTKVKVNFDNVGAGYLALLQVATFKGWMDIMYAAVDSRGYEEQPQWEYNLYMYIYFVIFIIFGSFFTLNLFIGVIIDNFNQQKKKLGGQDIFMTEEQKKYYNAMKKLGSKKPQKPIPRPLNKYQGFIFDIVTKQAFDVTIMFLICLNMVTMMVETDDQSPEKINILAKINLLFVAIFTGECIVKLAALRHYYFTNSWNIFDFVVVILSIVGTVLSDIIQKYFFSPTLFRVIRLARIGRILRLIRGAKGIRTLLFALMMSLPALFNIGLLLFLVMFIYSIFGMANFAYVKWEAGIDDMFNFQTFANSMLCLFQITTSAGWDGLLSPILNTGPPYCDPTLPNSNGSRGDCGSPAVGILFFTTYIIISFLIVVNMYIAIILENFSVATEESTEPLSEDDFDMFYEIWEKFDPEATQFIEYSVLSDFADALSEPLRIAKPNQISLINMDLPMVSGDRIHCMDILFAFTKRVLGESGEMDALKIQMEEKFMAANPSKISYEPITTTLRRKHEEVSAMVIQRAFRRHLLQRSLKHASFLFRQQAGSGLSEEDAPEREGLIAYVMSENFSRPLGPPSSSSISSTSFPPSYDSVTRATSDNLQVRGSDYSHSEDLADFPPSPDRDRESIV
Sequence of human NaV1.4 (P35499 whole entry): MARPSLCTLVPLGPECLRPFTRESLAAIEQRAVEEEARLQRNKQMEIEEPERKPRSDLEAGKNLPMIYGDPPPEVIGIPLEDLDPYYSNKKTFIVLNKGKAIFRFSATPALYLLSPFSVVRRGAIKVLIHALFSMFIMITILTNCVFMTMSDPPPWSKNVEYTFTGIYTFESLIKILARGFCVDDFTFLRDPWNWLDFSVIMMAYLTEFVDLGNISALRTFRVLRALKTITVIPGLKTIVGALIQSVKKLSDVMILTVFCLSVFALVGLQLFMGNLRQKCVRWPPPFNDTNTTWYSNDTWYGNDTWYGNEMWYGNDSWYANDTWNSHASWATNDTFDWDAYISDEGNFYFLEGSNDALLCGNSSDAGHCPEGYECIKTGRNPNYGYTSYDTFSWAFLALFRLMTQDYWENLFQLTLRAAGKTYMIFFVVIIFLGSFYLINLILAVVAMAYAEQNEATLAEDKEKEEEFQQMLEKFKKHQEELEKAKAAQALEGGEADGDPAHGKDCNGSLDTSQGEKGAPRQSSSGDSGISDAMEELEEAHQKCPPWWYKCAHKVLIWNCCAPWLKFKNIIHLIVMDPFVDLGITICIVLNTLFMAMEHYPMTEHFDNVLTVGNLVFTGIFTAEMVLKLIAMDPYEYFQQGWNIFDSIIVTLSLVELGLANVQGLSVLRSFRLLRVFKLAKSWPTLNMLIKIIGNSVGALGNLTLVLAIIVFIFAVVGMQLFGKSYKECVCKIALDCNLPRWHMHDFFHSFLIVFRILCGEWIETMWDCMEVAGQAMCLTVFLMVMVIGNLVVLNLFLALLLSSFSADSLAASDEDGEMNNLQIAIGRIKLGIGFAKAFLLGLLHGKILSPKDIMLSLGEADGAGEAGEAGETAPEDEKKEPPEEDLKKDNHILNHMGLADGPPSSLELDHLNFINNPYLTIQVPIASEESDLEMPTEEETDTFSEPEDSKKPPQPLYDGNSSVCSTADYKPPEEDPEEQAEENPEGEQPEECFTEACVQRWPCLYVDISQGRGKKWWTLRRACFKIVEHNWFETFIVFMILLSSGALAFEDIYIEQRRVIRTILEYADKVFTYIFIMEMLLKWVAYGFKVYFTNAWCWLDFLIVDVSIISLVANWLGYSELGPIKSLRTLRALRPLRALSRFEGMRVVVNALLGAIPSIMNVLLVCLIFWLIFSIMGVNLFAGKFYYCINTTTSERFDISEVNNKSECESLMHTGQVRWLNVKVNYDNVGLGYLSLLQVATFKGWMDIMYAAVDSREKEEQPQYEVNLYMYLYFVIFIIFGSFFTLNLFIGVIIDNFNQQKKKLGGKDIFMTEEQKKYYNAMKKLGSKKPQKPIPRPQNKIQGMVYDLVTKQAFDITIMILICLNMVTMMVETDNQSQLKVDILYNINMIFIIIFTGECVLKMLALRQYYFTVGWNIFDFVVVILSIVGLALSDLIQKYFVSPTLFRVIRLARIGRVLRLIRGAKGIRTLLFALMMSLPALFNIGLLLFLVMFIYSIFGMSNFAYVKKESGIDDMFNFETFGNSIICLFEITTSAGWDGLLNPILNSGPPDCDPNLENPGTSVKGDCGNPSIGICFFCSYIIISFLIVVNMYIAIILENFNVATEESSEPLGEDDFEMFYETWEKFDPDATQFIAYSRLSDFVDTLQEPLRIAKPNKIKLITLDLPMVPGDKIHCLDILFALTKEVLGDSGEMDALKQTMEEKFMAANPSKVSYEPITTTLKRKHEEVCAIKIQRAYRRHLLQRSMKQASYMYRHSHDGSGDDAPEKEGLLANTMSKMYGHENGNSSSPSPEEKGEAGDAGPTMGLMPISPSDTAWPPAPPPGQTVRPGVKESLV

| SMILES | IC50 (human NaV1.4; [2]) [µM] | IC50 (human NaV1.5; [4]) [µM] | IC50 (human NaV1.4; [5]) [µM] | IC50 (human NaV1.7; [6]) [µM] | also measured |
| --- | --- | --- | --- | --- | --- |
| CC[C@H](C)[C@H](NC(=O)[C@@H](NC(=O)[C@H](C)NC(=O)[C@H](CCCNC(=N)N)NC(=O)[C@@H]1CSSC[C@@H]2NC(=O)[C@H](C)NC(=O)[C@H](CCCNC(=N)N)NC(=O)[C@H](CCCCN)NC(=O)[C@H](CO)NC(=O)[C@H](CC(=O)O)NC(=O)[C@@H]3CSSC[C@H](NC(=O)[C@H](CCCNC(=N)N)NC(=O)[C@H](CC(C)C)NC(=O)CNC(=O)[C@H](CCC(=O)O)NC(=O)[C@H](CSSC[C@H](NC(=O)[C@@H](N)Cc4ccc(O)cc4)C(=O)N[C@@H](CCC(N)=O)C(=O)N[C@@H](CCCCN)C(=O)N[C@@H](Cc4c[nH]c5ccccc45)C(=O)N[C@@H](CCSC)C(=O)N[C@@H](Cc4c[nH]c5ccccc45)C(=O)N[C@@H]([C@@H](C)O)C(=O)N3)NC2=O)C(=O)N[C@@H](CCCCN)C(=O)N[C@@H](CC(C)C)C(=O)N[C@@H](Cc2c[nH]c3ccccc23)C(=O)N1)[C@@H](C)CC)C(N)=O [K27 Ala mutant] | 2.32 |  |  |  | IC50 (human NaV1.5; [1]): > 10 µM; IC50 (human NaV1.7; [3]): 0.374 µM |
| CC[C@H](C)[C@H](NC(=O)[C@@H](NC(=O)[C@H](CCCCN)NC(=O)[C@H](CCCNC(=N)N)NC(=O)[C@@H]1CSSC[C@@H]2NC(=O)[C@H](C)NC(=O)[C@H](CCCNC(=N)N)NC(=O)[C@H](CCCCN)NC(=O)[C@H](CO)NC(=O)[C@H](CC(=O)O)NC(=O)[C@@H]3CSSC[C@H](NC(=O)[C@H](CCCNC(=N)N)NC(=O)[C@H](CC(C)C)NC(=O)CNC(=O)[C@H](CCC(=O)O)NC(=O)[C@H](CSSC[C@H](NC(=O)[C@@H](N)Cc4ccc(O)cc4)C(=O)N[C@@H](C)C(=O)N[C@@H](CCCCN)C(=O)N[C@@H](Cc4c[nH]c5ccccc45)C(=O)N[C@@H](CCSC)C(=O)N[C@@H](Cc4c[nH]c5ccccc45)C(=O)N[C@@H]([C@@H](C)O)C(=O)N3)NC2=O)C(=O)N[C@@H](CCCCN)C(=O)N[C@@H](CC(C)C)C(=O)N[C@@H](Cc2c[nH]c3ccccc23)C(=O)N1)[C@@H](C)CC)C(N)=O [Q3 Ala mutant] | 1.15 |  |  |  | IC50 (human NaV1.5; [1]): > 10 µM; IC50 (human NaV1.7; [3]): 0.378 µM |
| CC[C@H](C)[C@H](NC(=O)[C@@H](NC(=O)[C@H](CCCCN)NC(=O)[C@H](CCCNC(=N)N)NC(=O)[C@@H]1CSSC[C@@H]2NC(=O)[C@H](C)NC(=O)[C@H](CCCNC(=N)N)NC(=O)[C@H](CCCCN)NC(=O)[C@H](CO)NC(=O)[C@H](CC(=O)O)NC(=O)[C@@H]3CSSC[C@H](NC(=O)[C@H](CCCNC(=N)N)NC(=O)[C@H](CC(C)C)NC(=O)CNC(=O)[C@H](CCC(=O)O)NC(=O)[C@H](CSSC[C@H](NC(=O)[C@@H](N)Cc4ccc(O)cc4)C(=O)N[C@@H](CCC(N)=O)C(=O)N[C@@H](CCCCN)C(=O)N[C@@H](CCC(=O)O)C(=O)N[C@@H](CCSC)C(=O)N[C@@H](Cc4c[nH]c5ccccc45)C(=O)N[C@@H]([C@@H](C)O)C(=O)N3)NC2=O)C(=O)N[C@@H](CCCCN)C(=O)N[C@@H](CC(C)C)C(=O)N[C@@H](Cc2c[nH]c3ccccc23)C(=O)N1)[C@@H](C)CC)C(N)=O [W5 Glu mutant] |  | > 10 | > 10 | > 10 |  |
| CC[C@H](C)[C@H](NC(=O)[C@@H](NC(=O)[C@H](CCC(=O)O)NC(=O)[C@H](CCCNC(=N)N)NC(=O)[C@@H]1CSSC[C@@H]2NC(=O)[C@H](C)NC(=O)[C@H](CCCNC(=N)N)NC(=O)[C@H](CCCCN)NC(=O)[C@H](CO)NC(=O)[C@H](CC(=O)O)NC(=O)[C@@H]3CSSC[C@H](NC(=O)[C@H](CCCNC(=N)N)NC(=O)[C@H](CC(C)C)NC(=O)CNC(=O)[C@H](CCC(=O)O)NC(=O)[C@H](CSSC[C@H](NC(=O)[C@@H](N)Cc4ccc(O)cc4)C(=O)N[C@@H](CCC(N)=O)C(=O)N[C@@H](CCCCN)C(=O)N[C@@H](Cc4c[nH]c5ccccc45)C(=O)N[C@@H](CCSC)C(=O)N[C@@H](Cc4c[nH]c5ccccc45)C(=O)N[C@@H]([C@@H](C)O)C(=O)N3)NC2=O)C(=O)N[C@@H](CCCCN)C(=O)N[C@@H](CC(C)C)C(=O)N[C@@H](Cc2c[nH]c3ccccc23)C(=O)N1)[C@@H](C)CC)C(N)=O [K27 Glu mutant] |  | > 10 | > 10 | 0.748 |  |
| CC[C@H](C)[C@H](NC(=O)[C@@H](NC(=O)[C@H](CCCCN)NC(=O)[C@H](CCCNC(=N)N)NC(=O)[C@@H]1CSSC[C@@H]2NC(=O)[C@H](C)NC(=O)[C@H](CCCNC(=N)N)NC(=O)[C@H](CCCCN)NC(=O)[C@H](CO)NC(=O)[C@H](CC(=O)O)NC(=O)[C@@H]3CSSC[C@H](NC(=O)[C@H](CCCNC(=N)N)NC(=O)[C@H](CC(C)C)NC(=O)CNC(=O)[C@H](CCC(=O)O)NC(=O)[C@H](CSSC[C@H](NC(=O)[C@@H](N)Cc4ccc(O)cc4)C(=O)N[C@@H](CCC(=O)O)C(=O)N[C@@H](CCCCN)C(=O)N[C@@H](Cc4c[nH]c5ccccc45)C(=O)N[C@@H](CCSC)C(=O)N[C@@H](Cc4c[nH]c5ccccc45)C(=O)N[C@@H]([C@@H](C)O)C(=O)N3)NC2=O)C(=O)N[C@@H](CCCCN)C(=O)N[C@@H](CC(C)C)C(=O)N[C@@H](Cc2c[nH]c3ccccc23)C(=O)N1)[C@@H](C)CC)C(N)=O [Q3 Glu mutant] |  | > 10 | 1.83 | 0.333 |  |
| CC[C@H](C)[C@H](NC(=O)[C@@H](NC(=O)[C@H](CCCCN)NC(=O)[C@H](CCCNC(=N)N)NC(=O)[C@@H]1CSSC[C@@H]2NC(=O)[C@H](C)NC(=O)[C@H](CCCNC(=N)N)NC(=O)[C@H](CCCCN)NC(=O)[C@H](CO)NC(=O)[C@H](CC(=O)O)NC(=O)[C@@H]3CSSC[C@H](NC(=O)[C@H](C)NC(=O)[C@H](CC(C)C)NC(=O)CNC(=O)[C@H](CCC(=O)O)NC(=O)[C@H](CSSC[C@H](NC(=O)[C@@H](N)Cc4ccc(O)cc4)C(=O)N[C@@H](CCC(N)=O)C(=O)N[C@@H](CCCCN)C(=O)N[C@@H](Cc4c[nH]c5ccccc45)C(=O)N[C@@H](CCSC)C(=O)N[C@@H](Cc4c[nH]c5ccccc45)C(=O)N[C@@H]([C@@H](C)O)C(=O)N3)NC2=O)C(=O)N[C@@H](CCCCN)C(=O)N[C@@H](CC(C)C)C(=O)N[C@@H](Cc2c[nH]c3ccccc23)C(=O)N1)[C@@H](C)CC)C(N)=O [R20 Ala mutant] | 0.425 |  |  |  | IC50 (human NaV1.5; human, read-out: Ala mutant IWQ IC50 NaV1.5): 4.64 µM |
| CC[C@H](C)[C@H](NC(=O)[C@@H](NC(=O)[C@H](CCCCN)NC(=O)[C@H](CCCNC(=N)N)NC(=O)[C@@H]1CSSC[C@@H]2NC(=O)[C@H](C)NC(=O)[C@H](CCCNC(=N)N)NC(=O)[C@H](CCCCN)NC(=O)[C@H](CO)NC(=O)[C@H](CC(=O)O)NC(=O)[C@@H]3CSSC[C@H](NC(=O)[C@H](CCCNC(=N)N)NC(=O)[C@H](CC(C)C)NC(=O)CNC(=O)[C@H](CCC(=O)O)NC(=O)[C@H](CSSC[C@H](NC(=O)[C@@H](N)CCC(=O)O)C(=O)N[C@@H](CCC(N)=O)C(=O)N[C@@H](CCCCN)C(=O)N[C@@H](Cc4c[nH]c5ccccc45)C(=O)N[C@@H](CCSC)C(=O)N[C@@H](Cc4c[nH]c5ccccc45)C(=O)N[C@@H]([C@@H](C)O)C(=O)N3)NC2=O)C(=O)N[C@@H](CCCCN)C(=O)N[C@@H](CC(C)C)C(=O)N[C@@H](Cc2c[nH]c3ccccc23)C(=O)N1)[C@@H](C)CC)C(N)=O [Y1 Glu mutant] |  |  | 0.235 |  | IC50 (human NaV1.5; human, read-out: Glu mutant IWQ IC50 NaV1.5): > 5 µM |
